According to patent US11306111B2, “Organophosphate derivatives” (January Therapeutics, Inc., priority 2017, dated 2022):
Where a name gives a salt, the structure may show the parent alone.

System: BxPC-3 cells
Assay: Cellular proliferation assay in BxPC-3 cells (Cell-Titer Glo, 120 h)
Assay type: cell-based
Conditions: Homo sapiens, 120 h incubation, Cell-Titer Glo luminescence
Method: Compounds are tested for their ability to impair cancer cell proliferation and/or induce cell death. For cellular proliferation studies, cultured cells are treated with the test compound for 24-120 hours. After compound treatment, cell proliferation is assessed by using methods including, but not limited to, Cell-Titer-Glo® (Promega), Alamar Blue, LIVE/DEAD® (ThermoFisher), BrdU incorporation, and live-cell imaging.
The cancer lines used include, but are not limited to, PANC-1, MiaPaCa-2, BxPC-3 (pancreatic cancer), RT112 (bladder cancer), MCF-7 (breast cancer), and A549 (non-small cell lung cancer). Gemcitabine Hydrochloride serves as a control for activity.
Protocol for the Cellular Proliferation Assay in BxPC-3 Cells
BxPC-3 (pancreatic adenocarcinoma) cell line was purchased from the American Type Culture Collection (Catalog #CRL-1687) and grown in RPMI-1640 medium (e.g. Corning #10-040-CV) with 10% Heat Inactivated Fetal Calf Serum at 37° C. and 5% CO2 (as recommended by the ATCC).
Cultures were grown in […] plates to 80% confluence, and cells were trypsinized to a single-cell suspension. Cells were then resuspended in growth medium to a density of […]. They were then plated into 96-well assay plates (Corning #3917) in a volume of 100 ul/well (2,500 cells/well). Cells were allowed to adhere to plates for 24 h at 37° C. and 5% CO2). Compounds were then added to the wells using an […] serial dilution scheme (over 9 dilutions, generally ranging from 30 μM-30 pM), and the cells were incubated for an additional 120 hours. After 120 h, 90 ul of Cell-Titer Glo reagent (Promega #G7572) was added, and the plates were read using a luminescence counter (e.g., BioTek Synergy HTX at 100 ms read time).

Structure (SMILES)	EC50 [µM]
CCCCCCCCC(=O)O[C@@H]1[C@@H](COP(=O)(OCCCCCC)OCCCCCC)O[C@@H](n2ccc(N)nc2=O)C1(F)F [Compound 1, (2R,3R,5R)-5-(4-amino-2-oxopyrimidin-1(2H)-yl)-2-(((bis(hexyloxy)phosphoryl)oxy)methyl)-4,4-difluorotetrahydrofuran-3-yl nonanoate]	0.001 to 0.1
CCCCCCCCC(=O)O[C@@H]1[C@@H](COP2(=O)OCc3ccccc3O2)O[C@@H](n2ccc(N)nc2=O)C1(F)F (stereo partly drawn) [Compound 2, (2R,3R,5R)-5-(4-amino-2-oxopyrimidin-1(2H)-yl)-4,4-difluoro-2-(((2-oxido-4H-benzo[d][1,3,2]dioxaphosphinin-2-yl)oxy)methyl)tetrahydrofuran-3-yl nonanoate]	< 0.001
CCCCCCCCC(=O)O[C@@H]1[C@@H](COP(=O)(OCOC(=O)C(C)(C)C)OCOC(=O)C(C)(C)C)O[C@@H](n2ccc(N)nc2=O)C1(F)F [Compound 3]	< 0.001
CC(C)OP(=O)(OC[C@H]1O[C@@H](n2ccc(N)nc2=O)C(F)(F)[C@@H]1OC(=O)C(C)C)OC(C)C [Compound 16, (2R,3R,5R)-5-(4-amino-2-oxopyrimidin-1(2H)-(((diisopropoxyphosphoryl)oxy)methyl)-4,4-difluorotetrahydrofuran-3-yl isobutyrate]	< 1
CCCOP(=O)(OCCC)OC[C@H]1O[C@@H](n2ccc(N)nc2=O)C(F)(F)[C@@H]1OC(=O)CCC [Compound 17, (2R,3R,5R)-5-(4-amino-2-oxopyrimidin-1(2H)-(((dipropoxyphosphoryl)oxy)methyl)-4,4-difluorotetrahydrofuran-3-yl butyrate]	1 to 25
CCCCCOP(=O)(OCCCCC)OC[C@H]1O[C@@H](n2ccc(N)nc2=O)C(F)(F)[C@@H]1OC(=O)CCCCC [Compound 18, (2R,3R,5R)-5-(4-amino-2-oxopyrimidin-1(2H)-yl)-2-(((bis(pentyloxy)phosphoryl)oxy)methyl)-4,4-difluorotetrahydrofuran-3-yl hexanoate]	< 1
CCCCCCCOP(=O)(OCCCCCCC)OC[C@H]1O[C@@H](n2ccc(N)nc2=O)C(F)(F)[C@@H]1OC(=O)CCCCCCC [Compound 19, (2R,3R,5R)-5-(4-amino-2-oxopyrimidin-1(2H)-yl)-2-(((bis(heptyloxy)phosphoryl)oxy)methyl)-4,4-difluorotetrahydrofuran-3-yl octanoate]	< 1
CCCCCCCCCCCCCCCCC(=O)O[C@@H]1[C@@H](COP(=O)(OCCCCCCCC)OCCCCCCCC)O[C@@H](n2ccc(N)nc2=O)C1(F)F [Compound 20, (2R,3R,5R)-5-(4-amino-2-oxopyrimidin-1(2H)-yl)-2-(((bis(octyloxy)phosphoryl)oxy)methyl)-4,4-difluorotetrahydrofuran-3-yl heptadecanoate]	1 to 25
CCCCCCCCCCOP(=O)(OCCCCCCCCCC)OC[C@H]1O[C@@H](n2ccc(N)nc2=O)C(F)(F)[C@@H]1OC(=O)CCCCCCCCCC [Compound 21, (2R,3R,5R)-5-(4-amino-2-oxopyrimidin-1(2H)-yl)-2-(((bis(decyloxy)phosphoryl)oxy)methyl)-4,4-difluorotetrahydrofuran-3-yl undecanoate]	1 to 25
Nc1ccn([C@@H]2O[C@H](COP(=O)(Oc3ccccc3)Oc3ccccc3)[C@@H](OC(=O)c3ccccc3)C2(F)F)c(=O)n1 [Compound 25, (2R,3R,5R)-5-(4-amino-2-oxopyrimidin-1(2H)-yl)-2-(((diphenoxyphosphoryl)oxy)methyl)-4,4-difluorotetrahydrofuran-3-yl benzoate]	1 to 25
CCCCCCCCCCCCC(=O)O[C@@H]1[C@@H](COP2(=O)OCc3ccccc3O2)O[C@@H](n2ccc(N)nc2=O)C1(F)F (stereo partly drawn) [Compound 28, (2R,3R,5R)-5-(4-amino-2-oxopyrimidin-1(2H)-yl)-4,4-difluoro-2-(((2-oxido-4H-benzo[d][1,3,2]dioxaphosphinin-2-yl)oxy)methyl)tetrahydrofuran-3-yl tridecanoate]	< 0.001
CCCCCCCCCCCCCCC(=O)O[C@@H]1[C@@H](COP2(=O)OCc3ccccc3O2)O[C@@H](n2ccc(N)nc2=O)C1(F)F (stereo partly drawn) [Compound 29, (2R,3R,5R)-5-(4-amino-2-oxopyrimidin-1(2H)-yl)-4,4-difluoro-2-(((2-oxido-4H-benzo[d][1,3,2]dioxaphosphinin-2-yl)oxy)methyl)tetrahydrofuran-3-yl pentadecanoate]	< 0.001
CCCCCCCCCCCCCCCCC(=O)O[C@@H]1[C@@H](COP2(=O)OCc3ccccc3O2)O[C@@H](n2ccc(N)nc2=O)C1(F)F (stereo partly drawn) [Compound 30, (2R,3R,5R)-5-(4-amino-2-oxopyrimidin-1(2H)-yl)-4,4-difluoro-2-(((2-oxido-4H-benzo[d][1,3,2]dioxaphosphinin-2-yl)oxy)methyl)tetrahydrofuran-3-yl heptadecanoate]	< 0.001
CCCCCCCCCCCCCCCCC(=O)O[C@@H]1[C@@H](COP2(=O)OCc3cccc(C)c3O2)O[C@@H](n2ccc(N)nc2=O)C1(F)F (stereo partly drawn) [Compound 31, (2R,3R,5R)-5-(4-amino-2-oxopyrimidin-1(2H)-yl)-4,4-difluoro-2-(((8-methyl-2-oxido-4H-benzo[d][1,3,2]dioxaphosphinin-2-yl)oxy)methyl)tetrahydrofuran-3-yl heptadecanoate]	< 0.001
CCCCCCCCCCCCCCCCC(=O)O[C@@H]1[C@@H](COP2(=O)OCc3c(C)cccc3O2)O[C@@H](n2ccc(N)nc2=O)C1(F)F (stereo partly drawn) [Compound 32, (2R,3R,5R)-5-(4-amino-2-oxopyrimidin-1(2H)-yl)-4,4-difluoro-2-(((5-methyl-2-oxido-4H-benzo[d][1,3,2]dioxaphosphinin-2-yl)oxy)methyl)tetrahydrofuran-3-yl heptadecanoate]	< 0.001

Results, then the compound that gave them:

EC50 [µM]	Structure (SMILES)
< 0.001	CCCCCCCCCCOP1(=O)OC[C@H]2O[C@@H](n3ccc(N)nc3=O)C(F)(F)[C@@H]2O1 (single isomer, unassigned) [Compound 42A]
0.001 to 0.1	CCCCCCCCCCCCCCCCOP1(=O)OC[C@H]2O[C@@H](n3ccc(N)nc3=O)C(F)(F)[C@@H]2O1 (single isomer, unassigned) [Compound 43A]
0.001 to 0.1	CCCCCCCCCCCCCCCCCCOP1(=O)OC[C@H]2O[C@@H](n3ccc(N)nc3=O)C(F)(F)[C@@H]2O1 (single isomer, unassigned) [Compound 44A]
< 1	CCCCCCCCCCCCCCCCCCCCOP1(=O)OC[C@H]2O[C@@H](n3ccc(N)nc3=O)C(F)(F)[C@@H]2O1 (single isomer, unassigned) [Compound 45A]
1 to 25	CCCCCCCCCCCCCCCCCCCCCCOP1(=O)OC[C@H]2O[C@@H](n3ccc(N)nc3=O)C(F)(F)[C@@H]2O1 (single isomer, unassigned) [Compound 46A]
1 to 25	CCCCCCCCCCCCOP(=O)(OCCCCCCCCCCCC)OC[C@H]1O[C@@H](n2ccc(N)nc2=O)C(F)(F)[C@@H]1OC(=O)CCCCCCCCCCCC [Compound 22, (2R,3R,5R)-5-(4-amino-2-oxopyrimidin-1(2H)-yl)-2-(((bis(dodecyloxy)phosphoryl)oxy)methyl)-4,4-difluorotetrahydrofuran-3-yl tridecanoate]
1 to 25	CCCCCCCCCCCCCCOP(=O)(OCCCCCCCCCCCCCC)OC[C@H]1O[C@@H](n2ccc(N)nc2=O)C(F)(F)[C@@H]1OC(=O)CCCCCCCCCCCCCC [Compound 23, (2R,3R,5R)-5-(4-amino-2-oxopyrimidin-1(2H)-yl)-2-(((bis(tetradecyloxy)phosphoryl)oxy)methyl)-4,4-difluorotetrahydrofuran-3-yl pentadecanoate]
1 to 25	Nc1ccn([C@@H]2O[C@H](COP(=O)(OC3CCCCC3)OC3CCCCC3)[C@@H](OC(=O)C3CCCCC3)C2(F)F)c(=O)n1 [Compound 24, (2R,3R,5R)-5-(4-amino-2-oxopyrimidin-1(2H)-(((bis(cyclohexyloxy)phosphoryl)oxy)methyl)-4,4-difluorotetrahydrofuran-3-yl cyclohexanecarboxylate]
< 0.001	CCCCCCCCCCCCC(=O)O[C@@H]1[C@@H](COP(=O)(OCOC(=O)C(C)(C)C)OCOC(=O)C(C)(C)C)O[C@@H](n2ccc(N)nc2=O)C1(F)F [Compound 33]
< 0.001	CCCCCCCCCCCCCCC(=O)O[C@@H]1[C@@H](COP(=O)(OCOC(=O)C(C)(C)C)OCOC(=O)C(C)(C)C)O[C@@H](n2ccc(N)nc2=O)C1(F)F [Compound 34]
< 0.001	CCCCCCCCCCCCCCCCC(=O)O[C@@H]1[C@@H](COP(=O)(OCOC(=O)C(C)(C)C)OCOC(=O)C(C)(C)C)O[C@@H](n2ccc(N)nc2=O)C1(F)F [Compound 35]
< 0.001	CCCCCCCCCCCCCCCCCCC(=O)O[C@@H]1[C@@H](COP(=O)(OCOC(=O)C(C)(C)C)OCOC(=O)C(C)(C)C)O[C@@H](n2ccc(N)nc2=O)C1(F)F [Compound 36]
0.001 to 0.1	Nc1ccn([C@@H]2O[C@H](CO)[C@@H](O)C2(F)F)c(=O)n1 [Gemcitabine Hydrochloride, 2′,2′-difluoro-2′-deoxycytidine, reference compound]
